Measured values reported in US9585871B2, “Method for treating and curing leishmaniosis using fexinidazole” (Merial Limited, priority 2013, dated 2017).
Where two headings read alike, the source gives them in different places.

Test: Multiple dosing study in dogs: systemic exposure (plasma) to fexinidazole and its metabolites
Format: in vivo, dog
Conditions: for concentration at 0 h / concentration at 0.5 h / concentration at 1 h / concentration at 2 h / concentration at 4 h / concentration at 8 h / concentration at 24 h / Cmax / Tmax / AUC(0-t): dog, plasma; for concentration at 0 h / concentration at 0.5 h / concentration at 1 h / concentration at 2 h / concentration at 4 h / concentration at 8 h / concentration at 24 h: oral, read-out: Average plasma concentrations of fexinidazole; for concentration at 2 h: Day 1, 2 hours; for concentration at 4 h: Day 1, 4 hours; for concentration at 8 h: Day 1, 8 hours; for concentration at 24 h: Day 1, 24 hours; for Cmax / Tmax / AUC(0-t): female, po, Female Dog, n = 3; for AUC(0-t): read-out: AUC0-t (last)
Experimental: In an embodiment, the fexinidazole may be administered to the canine as an aqueous oral suspension, comprising 5% TWEEN 80 and 0.5% Methyl cellulose 400 cP (METHOCEL). Provided in this format, fexinidazole suspensions of 5, 20, and 80 mg fexinidazole/mL may be prepared such that 10 mL of each concentration contains 50, 200, and 800 mg fexinidazole, respectively.
Moreover, inventors expect that a wide variety of dosing regimens are now available to the skilled person to achieve the necessary and sufficient fexinidazole plasma levels. For example, and as further outlined in the Examples below, any dosing regimen that produces substantially similar fexinidazole plasma levels, as compared to those levels produced by giving the dogs about 60 mg/kg/day for about twenty-eight days, is expected to substantially or completely eliminate the Leishmania parasites. Table 1 presents the systemic fexinidazole exposure following dosing of dogs with 50, 200, and 800 mg/kg/day.

[1] = 50 mg/kg/day, 50 mg/kg/day oral
[2] = 200 mg/kg/day, 200 mg/kg/day oral
[3] = 50 mg/kg/day, 50 mg/kg/day oral, D1, mean ± SD
[4] = 50 mg/kg/day, 50 mg/kg/day oral, D14, mean ± SD
[5] = 50 mg/kg/day, 50 mg/kg/day oral, D28, mean ± SD
[6] = 200 mg/kg/day, 200 mg/kg/day oral, D1, mean ± SD

CSc1ccc(OCc2ncc([N+](=O)[O-])n2C)cc1 [Fexinidazole, fexinidazole]
Average plasma concentrations of fexinidazole (50 mg/kg/day oral, Day 14, 2 hours): 26.8 ng/mL | Average plasma concentrations of fexinidazole (50 mg/kg/day oral, Day 14, 4 hours): ~9 ng/mL | Average plasma concentrations of fexinidazole (50 mg/kg/day oral, Day 14, 8 hours): <5 ng/mL | Average plasma concentrations of fexinidazole (50 mg/kg/day oral, Day 14, 24 hours): <5 ng/mL | Average plasma concentrations of fexinidazole (50 mg/kg/day oral, Day 28, 0 hours): <5 ng/mL | Average plasma concentrations of fexinidazole (50 mg/kg/day oral, Day 28, 1 hour): 28.3 ng/mL | Average plasma concentrations of fexinidazole (50 mg/kg/day oral, Day 28, 2 hours): 17.5 ng/mL | Average plasma concentrations of fexinidazole (50 mg/kg/day oral, Day 28, 4 hours): 14.3 ng/mL | Average plasma concentrations of fexinidazole (50 mg/kg/day oral, Day 28, 8 hours): ~5 ng/mL | Average plasma concentrations of fexinidazole (50 mg/kg/day oral, Day 28, 24 hours): <5 ng/mL | Average plasma concentrations of fexinidazole (200 mg/kg/day oral, Day 14, 2 hours): 70.2 ng/mL | Average plasma concentrations of fexinidazole (200 mg/kg/day oral, Day 14, 4 hours): 27.6 ng/mL | Average plasma concentrations of fexinidazole (200 mg/kg/day oral, Day 14, 8 hours): 13.5 ng/mL | Average plasma concentrations of fexinidazole (200 mg/kg/day oral, Day 14, 24 hours): 10.2 ng/mL | Average plasma concentrations of fexinidazole (200 mg/kg/day oral, Day 28, 0 hours): <5 ng/mL | Average plasma concentrations of fexinidazole (200 mg/kg/day oral, Day 28, 1 hour): 65.4 ng/mL | Average plasma concentrations of fexinidazole (200 mg/kg/day oral, Day 28, 2 hours): 44.6 ng/mL | Average plasma concentrations of fexinidazole (200 mg/kg/day oral, Day 28, 4 hours): 23.5 ng/mL | Average plasma concentrations of fexinidazole (200 mg/kg/day oral, Day 28, 8 hours): 12.4 ng/mL | Average plasma concentrations of fexinidazole (200 mg/kg/day oral, Day 28, 24 hours): 12.4 ng/mL | concentration at 0 h (50 mg/kg/day, 50 mg/kg/day oral, Day 1, 0 hours): < 0.005 µg/mL | concentration at 0.5 h (50 mg/kg/day, 50 mg/kg/day oral, Day 1, 0.5 hours): 0.0345 µg/mL | concentration at 1 h (50 mg/kg/day, 50 mg/kg/day oral, Day 1, 1 hour): 0.0303 µg/mL | concentration at 2 h [1]: 0.0238 µg/mL | concentration at 4 h [1]: 0.0126 µg/mL | concentration at 8 h [1]: < 0.005 µg/mL | concentration at 24 h [1]: < 0.005 µg/mL | concentration at 0 h (50 mg/kg/day, 50 mg/kg/day oral, Day 14, 0 hours): < 0.005 µg/mL | concentration at 0.5 h (50 mg/kg/day, 50 mg/kg/day oral, Day 14, 0.5 hours): 0.0288 µg/mL | concentration at 1 h (50 mg/kg/day, 50 mg/kg/day oral, Day 14, 1 hour): 0.0295 µg/mL | concentration at 0 h (200 mg/kg/day, 200 mg/kg/day oral, Day 1, 0 hours): < 0.005 µg/mL | concentration at 0.5 h (200 mg/kg/day, 200 mg/kg/day oral, Day 1, 0.5 hours): 0.0521 µg/mL | concentration at 1 h (200 mg/kg/day, 200 mg/kg/day oral, Day 1, 1 hour): 0.0613 µg/mL | concentration at 2 h [2]: 0.0459 µg/mL | concentration at 4 h [2]: 0.0226 µg/mL | concentration at 8 h [2]: 0.0099 µg/mL | concentration at 24 h [2]: 0.013 µg/mL | concentration at 0 h (200 mg/kg/day, 200 mg/kg/day oral, Day 14, 0 hours): 0.0166 µg/mL | concentration at 0.5 h (200 mg/kg/day, 200 mg/kg/day oral, Day 14, 0.5 hours): 0.0534 µg/mL | concentration at 1 h (200 mg/kg/day, 200 mg/kg/day oral, Day 14, 1 hour): 0.0632 µg/mL | Metabolism (dogs, after single and repeated administration): extensively metabolized to the sulfone and sulfoxide derivatives | Cmax [3]: 0.0424 ± 0.0106 µg/mL | Tmax [3]: 1 ± 0.87 h | AUC(0-t) [3]: 0.237 ± 0.105 µg·h/mL | Cmax [4]: 0.0419 ± 0.0022 µg/mL | Tmax [4]: 1.67 ± 0.58 h | AUC(0-t) [4]: 0.246 ± 0.117 µg·h/mL | Cmax [5]: 0.0363 ± 0.0151 µg/mL | Tmax [5]: 1 h | AUC(0-t) [5]: 0.0871 ± 0.0381 µg·h/mL | Cmax [6]: 0.0841 ± 0.0367 µg/mL | Tmax [6]: 1 h
